Results on 14 compounds are retold here after PubChem BioAssay AID212 (DTP/NCI, 2004).

In this assay the test system is BDF1 mice, colon carcinoma 38 sc, T/C %. Nature of the assay: NCI In Vivo Anticancer Drug Screen. Data for tumor model Colon Carcinoma 38 (subcutaneous) in B6D2F1 (BDF1) mice. Put shortly: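 Compound antitumor activity was assessed in mice carrying transplantable tumors. Survival or tumor size was recorded, and each value is the treated-group measurement divided by that of the vehicle-treated control group.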

The mark [1] stands for this setting: endpoint: median tumor weight (est.), dose: 12.5 mg/kg/injection, schedule: Q07DX002 (ip), vehicle: saline with Tween-80, higher = larger tumour.
[2] abbreviates: endpoint: median tumor weight (est.), dose: 100.0 mg/kg/injection, schedule: Q07DX002 (ip), vehicle: saline with Tween-80, higher = larger tumour.
Where [3] appears, read: endpoint: median tumor weight (est.), dose: 25.0 mg/kg/injection, schedule: Q07DX002 (ip), vehicle: saline with Tween-80, higher = larger tumour.
The mark [4] stands for this setting: endpoint: median tumor weight (est.), dose: 50.0 mg/kg/injection, schedule: Q07DX002 (ip), vehicle: saline with Tween-80, higher = larger tumour.
The mark [5] stands for this setting: endpoint: median tumor weight (est.), dose: 200.0 mg/kg/injection, schedule: Q07DX002 (ip), vehicle: saline with Tween-80, higher = larger tumour.
Setting [6] is: endpoint: median tumor weight (est.), dose: 12.5 mg/kg/injection, schedule: Q07DX003 (ip), vehicle: Klucel (hydroxypropylcellulose) (HPC), higher = larger tumour.
Setting [7] is: endpoint: median tumor weight (est.), dose: 50.0 mg/kg/injection, schedule: Q07DX003 (ip), vehicle: Klucel (hydroxypropylcellulose) (HPC), higher = larger tumour.

Several values for one entry are separate records, joined by “and”; a condition that tells them apart may be missing. Identical values can stand only once. Results filed as inconclusive are left out.

On to `Nc1nc(N)c2c(Cl)c(CNc3ccc(Cl)c(Cl)c3)ccc2n1`, for which the T/C under setting [1] is 73 % of control and 82 % of control and 88 % of control; the T/C under setting [2] was 5 % of control and 19 % of control.

As for `CC(=O)Oc1ccccc1C(=O)O`, the T/C by setting is: (endpoint: median tumor weight (est.), dose: 32.0 mg/kg/injection, schedule: Q07DX002 (ip), vehicle: saline with Tween-80, higher = larger tumour) 102 % of control; (endpoint: median tumor weight (est.), dose: 64.0 mg/kg/injection, schedule: Q07DX002 (ip), vehicle: saline with Tween-80, higher = larger tumour) 53 % of control; (endpoint: median tumor weight (est.), dose: 72.0 mg/kg/injection, schedule: Q07DX002 (ip), vehicle: saline with Tween-80, higher = larger tumour) 122 % of control; (endpoint: median tumor weight (est.), dose: 128.0 mg/kg/injection, schedule: Q07DX002 (ip), vehicle: saline with Tween-80, higher = larger tumour) 76 % of control; (endpoint: median tumor weight (est.), dose: 144.0 mg/kg/injection, schedule: Q07DX002 (ip), vehicle: saline with Tween-80, higher = larger tumour) 118 % of control; (endpoint: median tumor weight (est.), dose: 256.0 mg/kg/injection, schedule: Q07DX002 (ip), vehicle: saline with Tween-80, higher = larger tumour) 97 % of control. The T/C is 90 % of control (endpoint: median tumor weight (est.), dose: 518.0 mg/kg/injection, schedule: Q07DX002 (ip), vehicle: saline with Tween-80, higher = larger tumour) and 118 % of control (endpoint: median tumor weight (est.), dose: 1152.0 mg/kg/injection, schedule: Q07DX002 (ip), vehicle: saline with Tween-80, higher = larger tumour).

As for `CCOC(=O)c1[nH]c2cccc3c2c1CC(Br)C3=O` (stereo not given), the T/C runs as follows: under setting [3], 120 % of control; under setting [4], 92 % of control; under setting [2], 90 % of control; under setting [5], 78 % of control.

With `CNC(=O)n1c(N)nc(-c2ccccc2)c1-c1ccccc1`, the T/C under setting [1] is 80 % of control, the T/C under setting [3] is 99 % of control, the T/C under setting [4] is 119 % of control and the T/C under setting [2] is 98 % of control.

Consider `O=C(CCCN1CCC(O)(c2cccc(C(F)(F)F)c2)CC1)c1ccc(F)cc1`, for which the T/C reads like this: (endpoint: median tumor weight (est.), dose: 6.25 mg/kg/injection, schedule: Q07DX003 (ip), vehicle: Klucel (hydroxypropylcellulose) (HPC), higher = larger tumour) 78 % of control and 80 % of control; under setting [6], 84 % of control and 95 % of control; (endpoint: median tumor weight (est.), dose: 25.0 mg/kg/injection, schedule: Q07DX003 (ip), vehicle: Klucel (hydroxypropylcellulose) (HPC), higher = larger tumour) 113 % of control and 93 % of control; under setting [7], 100 % of control.

Regarding `O=c1[nH]cnc2c1ncn2C1OC(CO)C(O)C1O` (stereo not given), the T/C was 108 % of control (endpoint: median survival time, dose: 250.0 mg/kg/injection, schedule: Q04DX004 (ip), vehicle: saline with Tween-80, higher = longer survival); 107 % of control (endpoint: median survival time, dose: 250.0 mg/kg/injection, schedule: Q04DX004 (ip), vehicle: saline, higher = longer survival); 121 % of control (endpoint: median survival time, dose: 500.0 mg/kg/injection, schedule: Q04DX004 (ip), vehicle: saline with Tween-80, higher = longer survival); 120 % of control (endpoint: median survival time, dose: 500.0 mg/kg/injection, schedule: Q04DX004 (ip), vehicle: saline, higher = longer survival); 60 % of control (endpoint: median survival time, dose: 1000.0 mg/kg/injection, schedule: Q04DX004 (ip), vehicle: saline with Tween-80, higher = longer survival); 58 % of control (endpoint: median survival time, dose: 1000.0 mg/kg/injection, schedule: Q04DX004 (ip), vehicle: saline, higher = longer survival).

With `O=C(Nc1cccc2c(OC(=O)C(Cl)Cl)c(N=Nc3ccc(S(=O)(=O)Nc4nccs4)cc3)cc(N=Nc3ccc(S(=O)(=O)Nc4nccs4)cc3)c12)C(Cl)Cl` (tested in a mixture with another compound), the T/C reads like this: (endpoint: median tumor weight (est.), dose: 6.25 mg/kg/injection, schedule: Q07DX002 (ip), vehicle: saline with Tween-80, higher = larger tumour) 91 % of control; under setting [1], 100 % of control; under setting [3], 77 % of control; under setting [4], 92 % of control; under setting [2], 88 % of control.

Regarding `COc1ccc2c(c1)CCn1c(C)c(COC(=O)NC(C)C)c(COC(=O)NC(C)C)c1-2`, the T/C (endpoint: median tumor weight (est.), dose: 6.25 mg/kg/injection, schedule: Q07DX002 (ip), vehicle: distilled water + Tween-80, higher = larger tumour) is 76 % of control; the T/C (endpoint: median tumor weight (est.), dose: 12.5 mg/kg/injection, schedule: Q07DX002 (ip), vehicle: distilled water + Tween-80, higher = larger tumour) is 102 % of control; the T/C (endpoint: median tumor weight (est.), dose: 25.0 mg/kg/injection, schedule: Q07DX002 (ip), vehicle: distilled water + Tween-80, higher = larger tumour) is 97 % of control; the T/C (endpoint: median tumor weight (est.), dose: 50.0 mg/kg/injection, schedule: Q07DX002 (ip), vehicle: distilled water + Tween-80, higher = larger tumour) was 65 % of control; the T/C (endpoint: median tumor weight (est.), dose: 100.0 mg/kg/injection, schedule: Q07DX002 (ip), vehicle: distilled water + Tween-80, higher = larger tumour) was 48 % of control.

On to `Cc1c2cc(Cl)c3ccccc3c2c[n+]2ccccc12`, for which the T/C is, setting by setting: under setting [1], 94 % of control and 102 % of control; under setting [3], 116 % of control; under setting [4], 108 % of control and 111 % of control; under setting [2], 88 % of control and 98 % of control; under setting [5], 99 % of control; (endpoint: median tumor weight (est.), dose: 400.0 mg/kg/injection, schedule: Q07DX002 (ip), vehicle: saline with Tween-80, higher = larger tumour) 120 % of control.

`O=C(O)/C=C/C(=O)Nc1ccc(Cl)c(Cl)c1`: the T/C was 84 % of control under setting [6]; 67 % of control (endpoint: median tumor weight (est.), dose: 25.0 mg/kg/injection, schedule: Q07DX002 (ip), vehicle: Klucel (hydroxypropylcellulose) (HPC), higher = larger tumour); 77 % of control (endpoint: median tumor weight (est.), dose: 50.0 mg/kg/injection, schedule: Q07DX002 (ip), vehicle: Klucel (hydroxypropylcellulose) (HPC), higher = larger tumour); 69 % of control under setting [7]; 78 % of control (endpoint: median tumor weight (est.), dose: 100.0 mg/kg/injection, schedule: Q07DX002 (ip), vehicle: Klucel (hydroxypropylcellulose) (HPC), higher = larger tumour); 122 % of control (endpoint: median tumor weight (est.), dose: 100.0 mg/kg/injection, schedule: Q07DX003 (ip), vehicle: Klucel (hydroxypropylcellulose) (HPC), higher = larger tumour). For the same compound, the T/C (endpoint: median tumor weight (est.), dose: 200.0 mg/kg/injection, schedule: Q07DX002 (ip), vehicle: Klucel (hydroxypropylcellulose) (HPC), higher = larger tumour) is 67 % of control.

With `Nc1ccc2nc3ccc(N)cc3[n+](-c3ccccc3)c2c1`, the T/C (endpoint: median tumor weight (est.), dose: 2.0 mg/kg/injection, schedule: Q07DX002 (ip), vehicle: saline, higher = larger tumour) is 95 % of control; the T/C (endpoint: median tumor weight (est.), dose: 4.0 mg/kg/injection, schedule: Q07DX002 (ip), vehicle: saline, higher = larger tumour) was 74 % of control; the T/C (endpoint: median tumor weight (est.), dose: 4.0 mg/kg/injection, schedule: Q07DX003 (ip), vehicle: saline, higher = larger tumour) is 28 % of control; the T/C (endpoint: median tumor weight (est.), dose: 8.0 mg/kg/injection, schedule: Q07DX002 (ip), vehicle: saline, higher = larger tumour) is 96 % of control; the T/C (endpoint: median tumor weight (est.), dose: 8.0 mg/kg/injection, schedule: Q07DX003 (ip), vehicle: saline, higher = larger tumour) is 43 % of control; the T/C (endpoint: median tumor weight (est.), dose: 16.0 mg/kg/injection, schedule: Q07DX002 (ip), vehicle: saline, higher = larger tumour) was 72 % of control. The T/C is 46 % of control (endpoint: median tumor weight (est.), dose: 16.0 mg/kg/injection, schedule: Q07DX003 (ip), vehicle: saline, higher = larger tumour); 97 % of control (endpoint: median tumor weight (est.), dose: 32.0 mg/kg/injection, schedule: Q07DX002 (ip), vehicle: saline, higher = larger tumour); 43 % of control (endpoint: median tumor weight (est.), dose: 32.0 mg/kg/injection, schedule: Q07DX003 (ip), vehicle: saline, higher = larger tumour).

Turning to `CCCC[C@H]1C(=O)O[C@H](C)[C@H](NC(=O)c2cccc(NC=O)c2O)C(=O)O[C@@H](C)[C@@H]1OC(=O)CC(C)C`, the T/C was 177 % of control (endpoint: median tumor weight (est.), dose: 0.5 mg/kg/injection, schedule: Q07DX002 (ip), vehicle: Klucel (hydroxypropylcellulose) (HPC), higher = larger tumour) and 224 % of control (endpoint: median tumor weight (est.), dose: 1.0 mg/kg/injection, schedule: Q07DX002 (ip), vehicle: Klucel (hydroxypropylcellulose) (HPC), higher = larger tumour).

With `NC(=O)CC(N)C(=O)O` (stereo not given), the T/C is 72 % of control (endpoint: median tumor weight (est.), dose: 50.0 mg/kg/injection, schedule: Q07DX002 (ip), vehicle: other, higher = larger tumour); 85 % of control (endpoint: median tumor weight (est.), dose: 100.0 mg/kg/injection, schedule: Q07DX002 (ip), vehicle: other, higher = larger tumour); 79 % of control (endpoint: median tumor weight (est.), dose: 200.0 mg/kg/injection, schedule: Q07DX002 (ip), vehicle: other, higher = larger tumour); 91 % of control (endpoint: median tumor weight (est.), dose: 400.0 mg/kg/injection, schedule: Q07DX002 (ip), vehicle: other, higher = larger tumour); 118 % of control (endpoint: median tumor weight (est.), dose: 800.0 mg/kg/injection, schedule: Q07DX002 (ip), vehicle: other, higher = larger tumour); 88 % of control (endpoint: median tumor weight (est.), dose: 1600.0 mg/kg/injection, schedule: Q07DX002 (ip), vehicle: other, higher = larger tumour).

With `NC(=O)c1cn(C2OC(CO)C(O)C2O)c2ncnc(N)c12` (stereo not given), the T/C is, setting by setting: (endpoint: median tumor weight (est.), dose: 0.5 mg/kg/injection, schedule: Q07DX002 (ip), vehicle: suspension in saline, higher = larger tumour) 55 % of control; (endpoint: median tumor weight (est.), dose: 1.0 mg/kg/injection, schedule: Q07DX002 (ip), vehicle: suspension in saline, higher = larger tumour) 84 % of control; (endpoint: median tumor weight (est.), dose: 2.0 mg/kg/injection, schedule: Q07DX002 (ip), vehicle: saline with Tween-80, higher = larger tumour) 73 % of control; (endpoint: median tumor weight (est.), dose: 2.0 mg/kg/injection, schedule: Q07DX002 (ip), vehicle: suspension in saline, higher = larger tumour) 56 % of control and 62 % of control; (endpoint: median tumor weight (est.), dose: 4.0 mg/kg/injection, schedule: Q07DX002 (ip), vehicle: saline with Tween-80, higher = larger tumour) 79 % of control; (endpoint: median tumor weight (est.), dose: 4.0 mg/kg/injection, schedule: Q07DX002 (ip), vehicle: suspension in saline, higher = larger tumour) 48 % of control and 73 % of control. For the setting “endpoint: median tumor weight (est.), dose: 8.0 mg/kg/injection, schedule: Q07DX002 (ip), vehicle: suspension in saline, higher = larger tumour”, the T/C is 38 % of control.
